Data taken from the kinase profiling compilation of Christmann-Franck et al. (2016).
Values joined by “and” are separate entries in the source; they are usually repeats but may differ in a detail not shown here. Equal entries are not always repeated.

Experiments:
Assay in all cases: radiometric filter-binding kinase assay, Kinase HotSpot
Conditions in all cases: compound 0.5 µM; ATP 10 µM
NEK9 (human) = NEK9 (human) (UniProt Q8TD19)
PTK2 (human) = PTK2 (human) (UniProt Q05397)
CDC42BPA (human) = CDC42BPA (human) (UniProt Q5VT25)
BRAF (human) = BRAF (human) (UniProt P15056)
ACVR1 (human) = ACVR1 (human) (UniProt Q04771)
IRAK4 (human) = IRAK4 (human) (UniProt Q9NWZ3)
TGFBR1 (human) = TGFBR1 (human) (UniProt P36897)
RAF1 (human) = RAF1 (human) (UniProt P04049)
PDGFRA (human) = PDGFRA (human) (UniProt P16234)
DAPK2 (human) = DAPK2 (human) (UniProt Q9UIK4)
STK16 (human) = STK16 (human) (UniProt O75716)
RPS6KA6 KD1 KD2 (human) = RPS6KA6 KD1 KD2 (human) (UniProt Q9UK32)
TSSK2 (human) = TSSK2 (human) (UniProt Q96PF2)
EPHA6 (human) = EPHA6 (human) (UniProt Q9UF33)
TEC (human) = TEC (human) (UniProt P42680)
PHKG1 (human) = PHKG1 (human) (UniProt Q16816)
CDC42BPB (human) = CDC42BPB (human) (UniProt Q9Y5S2)
MET (human) = MET (human) (UniProt P08581)
EPHB4 (human) = EPHB4 (human) (UniProt P54760)
DSTYK (human) = DSTYK (human) (UniProt Q6XUX3)
NEK3 (human) = NEK3 (human) (UniProt P51956)
ADRBK2 (human) = ADRBK2 (human) (UniProt P35626)
PHKG2 (human) = PHKG2 (human) (UniProt P15735)
PRKCD (human) = PRKCD (human) (UniProt Q05655)
NEK6 (human) = NEK6 (human) (UniProt Q9HC98)
NUAK2 (human) = NUAK2 (human) (UniProt Q9H093)
TLK2 (human) = TLK2 (human) (UniProt Q86UE8)
CAMK1G (human) = CAMK1G (human) (UniProt Q96NX5)
STK25 (human) = STK25 (human) (UniProt O00506)
IGF1R (human) = IGF1R (human) (UniProt P08069)
LYN (human) = LYN (human) (UniProt P07948)
LIMK1 (human) = LIMK1 (human) (UniProt P53667)
EPHB3 (human) = EPHB3 (human) (UniProt P54753)
MAP3K9 (human) = MAP3K9 (human) (UniProt P80192)
CHEK1 (human) = CHEK1 (human) (UniProt O14757)
DYRK2 (human) = DYRK2 (human) (UniProt Q92630)
SRMS (human) = SRMS (human) (UniProt Q9H3Y6)
FGFR4 (human) = FGFR4 (human) (UniProt P22455)
ADRBK1 (human) = ADRBK1 (human) (UniProt P25098)
ABL1 (human) = ABL1 (human) (UniProt P00519)

Chain of NEK3 (human) (P51956 whole entry, looked up): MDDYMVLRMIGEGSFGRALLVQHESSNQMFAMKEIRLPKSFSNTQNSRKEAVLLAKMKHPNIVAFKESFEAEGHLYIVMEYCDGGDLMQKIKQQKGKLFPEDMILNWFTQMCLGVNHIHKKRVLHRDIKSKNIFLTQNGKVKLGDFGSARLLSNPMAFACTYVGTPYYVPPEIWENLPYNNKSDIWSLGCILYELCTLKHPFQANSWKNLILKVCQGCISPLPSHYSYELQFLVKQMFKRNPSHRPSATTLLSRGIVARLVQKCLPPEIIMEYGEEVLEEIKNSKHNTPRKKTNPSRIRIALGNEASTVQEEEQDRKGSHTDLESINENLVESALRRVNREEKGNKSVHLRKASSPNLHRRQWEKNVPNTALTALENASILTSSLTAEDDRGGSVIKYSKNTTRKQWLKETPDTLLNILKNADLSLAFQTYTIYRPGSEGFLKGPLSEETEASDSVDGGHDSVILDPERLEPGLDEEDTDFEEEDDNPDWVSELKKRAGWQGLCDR
Chain of CHEK1 (human) (O14757 whole entry, looked up): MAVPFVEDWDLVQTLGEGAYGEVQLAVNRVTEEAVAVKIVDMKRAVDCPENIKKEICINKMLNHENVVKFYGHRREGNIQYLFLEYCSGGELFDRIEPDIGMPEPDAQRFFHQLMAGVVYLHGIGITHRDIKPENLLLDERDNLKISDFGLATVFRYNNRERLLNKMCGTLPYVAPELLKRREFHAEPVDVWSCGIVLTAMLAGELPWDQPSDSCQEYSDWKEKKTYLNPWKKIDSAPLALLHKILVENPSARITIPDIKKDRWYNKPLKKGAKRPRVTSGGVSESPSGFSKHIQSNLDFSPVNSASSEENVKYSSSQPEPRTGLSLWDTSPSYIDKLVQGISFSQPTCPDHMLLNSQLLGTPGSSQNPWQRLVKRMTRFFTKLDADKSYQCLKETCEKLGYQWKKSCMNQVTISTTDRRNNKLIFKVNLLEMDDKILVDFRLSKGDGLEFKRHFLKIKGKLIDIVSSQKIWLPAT
Chain of STK16 (human) (O75716 whole entry, looked up): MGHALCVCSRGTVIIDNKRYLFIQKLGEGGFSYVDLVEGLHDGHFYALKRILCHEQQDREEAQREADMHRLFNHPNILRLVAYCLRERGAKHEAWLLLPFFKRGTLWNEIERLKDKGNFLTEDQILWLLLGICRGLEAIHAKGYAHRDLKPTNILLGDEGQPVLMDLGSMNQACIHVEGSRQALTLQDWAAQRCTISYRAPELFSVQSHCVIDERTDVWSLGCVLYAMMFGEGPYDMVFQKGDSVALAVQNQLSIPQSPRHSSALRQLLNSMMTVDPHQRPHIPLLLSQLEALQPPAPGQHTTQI
Chain of EPHA6 (human) (Q9UF33 whole entry, looked up): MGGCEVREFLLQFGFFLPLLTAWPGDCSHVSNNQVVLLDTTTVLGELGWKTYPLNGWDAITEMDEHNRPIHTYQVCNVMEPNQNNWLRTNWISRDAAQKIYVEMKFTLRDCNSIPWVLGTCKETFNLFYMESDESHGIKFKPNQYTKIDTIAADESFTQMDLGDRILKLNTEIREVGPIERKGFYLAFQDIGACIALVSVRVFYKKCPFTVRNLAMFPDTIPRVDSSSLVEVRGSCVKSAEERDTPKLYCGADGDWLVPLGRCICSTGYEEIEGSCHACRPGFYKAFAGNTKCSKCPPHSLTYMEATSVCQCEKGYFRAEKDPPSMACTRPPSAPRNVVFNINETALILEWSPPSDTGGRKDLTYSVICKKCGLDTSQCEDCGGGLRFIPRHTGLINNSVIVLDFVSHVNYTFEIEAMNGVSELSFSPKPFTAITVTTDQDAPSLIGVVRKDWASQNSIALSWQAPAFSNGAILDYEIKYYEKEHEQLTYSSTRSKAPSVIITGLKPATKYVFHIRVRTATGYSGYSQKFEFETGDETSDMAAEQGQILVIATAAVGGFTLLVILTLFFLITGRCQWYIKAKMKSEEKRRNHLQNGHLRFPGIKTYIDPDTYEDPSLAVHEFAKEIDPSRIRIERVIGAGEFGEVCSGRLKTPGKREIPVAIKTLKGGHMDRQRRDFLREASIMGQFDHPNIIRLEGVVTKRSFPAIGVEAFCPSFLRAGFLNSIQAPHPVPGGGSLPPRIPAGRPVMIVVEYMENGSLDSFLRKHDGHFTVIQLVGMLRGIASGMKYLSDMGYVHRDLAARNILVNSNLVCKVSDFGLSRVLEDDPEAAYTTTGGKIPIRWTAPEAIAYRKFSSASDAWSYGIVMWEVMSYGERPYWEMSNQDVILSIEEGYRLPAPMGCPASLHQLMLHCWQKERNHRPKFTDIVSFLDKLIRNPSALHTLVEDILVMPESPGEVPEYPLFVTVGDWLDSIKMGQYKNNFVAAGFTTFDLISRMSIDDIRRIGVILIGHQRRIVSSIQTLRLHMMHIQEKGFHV
Chain of CAMK1G (human) (Q96NX5 whole entry, looked up): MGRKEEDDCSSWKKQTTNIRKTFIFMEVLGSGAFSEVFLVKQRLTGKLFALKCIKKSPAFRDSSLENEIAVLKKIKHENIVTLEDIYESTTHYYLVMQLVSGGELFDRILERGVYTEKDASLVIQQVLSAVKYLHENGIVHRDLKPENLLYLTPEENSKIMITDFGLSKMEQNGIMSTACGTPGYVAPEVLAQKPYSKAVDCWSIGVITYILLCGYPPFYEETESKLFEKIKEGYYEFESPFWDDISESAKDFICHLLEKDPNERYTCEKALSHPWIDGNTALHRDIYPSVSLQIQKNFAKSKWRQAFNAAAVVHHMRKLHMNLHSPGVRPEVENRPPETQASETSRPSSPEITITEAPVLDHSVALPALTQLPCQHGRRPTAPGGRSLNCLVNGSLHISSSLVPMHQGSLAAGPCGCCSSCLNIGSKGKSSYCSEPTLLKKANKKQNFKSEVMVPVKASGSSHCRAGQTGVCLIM
Chain of CDC42BPA (human) (Q5VT25 whole entry, looked up): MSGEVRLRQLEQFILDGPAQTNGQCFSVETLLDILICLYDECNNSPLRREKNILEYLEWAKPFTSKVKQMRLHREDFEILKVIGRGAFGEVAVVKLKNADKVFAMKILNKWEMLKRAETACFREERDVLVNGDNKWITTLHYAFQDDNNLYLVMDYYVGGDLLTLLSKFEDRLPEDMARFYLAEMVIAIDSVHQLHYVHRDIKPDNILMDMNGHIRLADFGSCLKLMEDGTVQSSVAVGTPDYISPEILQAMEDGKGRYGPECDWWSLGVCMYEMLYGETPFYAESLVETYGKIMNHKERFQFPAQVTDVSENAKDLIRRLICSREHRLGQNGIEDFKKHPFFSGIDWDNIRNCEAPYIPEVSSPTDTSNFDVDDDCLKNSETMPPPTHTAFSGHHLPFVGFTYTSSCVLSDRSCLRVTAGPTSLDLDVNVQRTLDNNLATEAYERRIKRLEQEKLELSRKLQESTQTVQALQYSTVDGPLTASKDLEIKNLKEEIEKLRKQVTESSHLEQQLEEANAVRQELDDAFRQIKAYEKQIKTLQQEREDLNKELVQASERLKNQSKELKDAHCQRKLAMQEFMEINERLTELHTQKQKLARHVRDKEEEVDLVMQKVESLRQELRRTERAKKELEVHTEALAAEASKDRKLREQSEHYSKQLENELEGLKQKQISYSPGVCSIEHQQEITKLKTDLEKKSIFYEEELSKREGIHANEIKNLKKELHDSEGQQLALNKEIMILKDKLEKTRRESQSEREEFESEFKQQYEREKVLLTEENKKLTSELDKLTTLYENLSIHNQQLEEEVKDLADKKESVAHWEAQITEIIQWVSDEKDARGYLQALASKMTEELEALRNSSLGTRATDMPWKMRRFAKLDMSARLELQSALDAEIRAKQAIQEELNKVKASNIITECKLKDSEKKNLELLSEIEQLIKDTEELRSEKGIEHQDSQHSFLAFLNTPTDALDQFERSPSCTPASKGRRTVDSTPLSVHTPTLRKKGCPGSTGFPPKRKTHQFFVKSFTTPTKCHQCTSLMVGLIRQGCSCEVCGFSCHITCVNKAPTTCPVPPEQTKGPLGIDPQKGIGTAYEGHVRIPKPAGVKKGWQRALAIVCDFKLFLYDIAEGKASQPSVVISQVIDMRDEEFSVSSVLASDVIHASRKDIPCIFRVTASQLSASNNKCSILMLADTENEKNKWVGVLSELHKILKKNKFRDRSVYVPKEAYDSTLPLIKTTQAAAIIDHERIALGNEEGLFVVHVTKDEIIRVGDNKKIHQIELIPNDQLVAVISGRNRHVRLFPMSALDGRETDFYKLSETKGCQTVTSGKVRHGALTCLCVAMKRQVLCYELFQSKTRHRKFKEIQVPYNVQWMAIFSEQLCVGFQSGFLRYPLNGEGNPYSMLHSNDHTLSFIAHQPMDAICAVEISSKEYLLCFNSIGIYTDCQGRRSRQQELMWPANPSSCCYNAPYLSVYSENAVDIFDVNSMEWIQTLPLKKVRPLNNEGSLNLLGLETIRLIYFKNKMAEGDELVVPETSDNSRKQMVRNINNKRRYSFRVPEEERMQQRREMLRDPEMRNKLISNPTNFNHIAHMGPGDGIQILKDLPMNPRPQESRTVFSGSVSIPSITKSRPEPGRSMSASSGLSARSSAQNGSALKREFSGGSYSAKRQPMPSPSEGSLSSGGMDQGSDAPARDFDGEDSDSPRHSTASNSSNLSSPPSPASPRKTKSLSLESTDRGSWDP
Chain of LYN (human) (P07948 whole entry, looked up): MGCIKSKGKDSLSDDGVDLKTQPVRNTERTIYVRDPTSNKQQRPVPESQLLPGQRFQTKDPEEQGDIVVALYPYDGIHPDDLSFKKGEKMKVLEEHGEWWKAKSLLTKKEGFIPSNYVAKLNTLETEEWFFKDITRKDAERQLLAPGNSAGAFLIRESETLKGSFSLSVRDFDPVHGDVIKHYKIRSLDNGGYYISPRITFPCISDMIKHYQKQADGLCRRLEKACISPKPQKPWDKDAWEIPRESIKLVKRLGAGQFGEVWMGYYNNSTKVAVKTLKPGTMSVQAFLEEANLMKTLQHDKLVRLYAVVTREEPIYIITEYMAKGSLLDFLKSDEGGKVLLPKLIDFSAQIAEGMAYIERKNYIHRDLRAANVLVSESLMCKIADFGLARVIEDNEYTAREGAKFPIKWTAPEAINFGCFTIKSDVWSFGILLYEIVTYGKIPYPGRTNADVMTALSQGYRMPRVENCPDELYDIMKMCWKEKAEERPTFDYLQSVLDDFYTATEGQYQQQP

SMILES	residual activity (NEK9 (human))	residual activity (PTK2 (human))	residual activity (CDC42BPA (human))	residual activity (BRAF (human))	residual activity (ACVR1 (human))	residual activity (IRAK4 (human))	residual activity (TGFBR1 (human))	residual activity (RAF1 (human))	residual activity (PDGFRA (human))	residual activity (DAPK2 (human))	residual activity (STK16 (human))	residual activity (RPS6KA6 KD1 KD2 (human))	residual activity (TSSK2 (human))	residual activity (EPHA6 (human))	residual activity (TEC (human))	residual activity (PHKG1 (human))	residual activity (CDC42BPB (human))	residual activity (MET (human))	residual activity (EPHB4 (human))	residual activity (DSTYK (human))	other results
Nc1ncnc2c1c(-c1ccc(Oc3ccccc3)cc1)cn2C1CCCC1	96.6%	93.9%	105%	85.4%	95.4%	98.5%	96.1%	71.3%	65%	87.6%	90.7%	96.6%	92.1%	63.6%	8.33%	91.1%	107%	110%	98.3%	100%	residual activity (NEK3 (human)): 98.4%; residual activity (ADRBK2 (human)): 92.2%; residual activity (PHKG2 (human)): 96.9%; residual activity (PRKCD (human)): 99.6%; residual activity (NEK6 (human)): 107%; residual activity (NUAK2 (human)): 96.8%; residual activity (TLK2 (human)): 112%; residual activity (CAMK1G (human)): 95.8%; residual activity (STK25 (human)): 113%; residual activity (IGF1R (human)): 104%; residual activity (LYN (human)): 3.49% and 5.13%; residual activity (LIMK1 (human)): 95.7%; residual activity (EPHB3 (human)): 93.4%; residual activity (MAP3K9 (human)): 103%; residual activity (CHEK1 (human)): 113%; residual activity (DYRK2 (human)): 96.5%; residual activity (SRMS (human)): 14.2%; residual activity (FGFR4 (human)): 98%; residual activity (ADRBK1 (human)): 97.8%; residual activity (ABL1 (human)): 67.4%
CCN(CC)CCNC(=O)c1c(C)[nH]c(/C=C2\C(=O)Nc3ccc(Cl)cc32)c1C	95.9%	25.8%	60%	109%	108%	22.7%	95.5%	117%	25.9%	86.7%	72.9%	10.5%	66.9%	45.7%	102%	3.19%	96.1%	77%	76.9%	105%	residual activity (NEK3 (human)): 94%; residual activity (ADRBK2 (human)): 97.8%; residual activity (PHKG2 (human)): 16.6%; residual activity (PRKCD (human)): 90.4%; residual activity (NEK6 (human)): 97.8%; residual activity (NUAK2 (human)): 70.7%; residual activity (TLK2 (human)): 79.6%; residual activity (CAMK1G (human)): 49.5%; residual activity (STK25 (human)): 56.1%; residual activity (IGF1R (human)): 35.2%; residual activity (LYN (human)): 21.9% and 6.34%; residual activity (LIMK1 (human)): 98.4%; residual activity (EPHB3 (human)): 100%; residual activity (MAP3K9 (human)): 49.6%; residual activity (CHEK1 (human)): 15.1%; residual activity (DYRK2 (human)): 82.7%; residual activity (SRMS (human)): 102%; residual activity (FGFR4 (human)): 70.5%; residual activity (ADRBK1 (human)): 104%; residual activity (ABL1 (human)): 24.7%
N#CC(C#N)=C(N)/C(C#N)=C/c1ccc(O)cc1	97.9%	98.5%	96.2%	90.1%	93.8%	92.6%	93%	86.3%	97.8%	95.7%	109%	104%	94.6%	98.6%	94.7%	92.5%	109%	117%	88.1%	92.9%	residual activity (NEK3 (human)): 98%; residual activity (ADRBK2 (human)): 96.7%; residual activity (PHKG2 (human)): 96.7%; residual activity (PRKCD (human)): 93.7%; residual activity (NEK6 (human)): 97.3%; residual activity (NUAK2 (human)): 122%; residual activity (TLK2 (human)): 89.4%; residual activity (CAMK1G (human)): 104%; residual activity (STK25 (human)): 90.4%; residual activity (IGF1R (human)): 90.6%; residual activity (LYN (human)): 102% and 92.2%; residual activity (LIMK1 (human)): 89.9%; residual activity (EPHB3 (human)): 99.5%; residual activity (MAP3K9 (human)): 94.4%; residual activity (CHEK1 (human)): 98.3%; residual activity (DYRK2 (human)): 117%; residual activity (SRMS (human)): 107%; residual activity (FGFR4 (human)): 91.1%; residual activity (ADRBK1 (human)): 104%; residual activity (ABL1 (human)): 103%
